These results are taken from patent publication US20230322769A1, “HETEROAROMATIC RING COMPOUND AS RET KINASE INHIBITOR, AND PREPARATION AND USE THEREOF” (JIANGSU CHIA TAI FENGHAI PHARMACEUTICAL CO., LTD., priority 2020, published 2023).

For data set [1], the target named is RET wild type (RET WT) (Homo sapiens (Human), UniProt P07949). The experiment in a line: HTRF kinase activity assay, RET wild type. The data set is classed as biochemical. To be noted: 1 μM ATP. Background: Time-resolved FRET reads energy transfer from a long-lived donor to a nearby acceptor.
Data set [2] concerns the target RET (V804M) (Homo sapiens (Human), UniProt P07949, V804M). The experiment in a line: HTRF kinase activity assay, RET (V804M). The data set is classed as biochemical. To be noted: 10 μM ATP.
Data set [3] addresses RET (M918T) (Homo sapiens (Human), UniProt P07949, M918T). The experiment in a line: HTRF kinase activity assay, RET (M918T). Format: biochemical. To be noted: 10 μM ATP.
Data set [4] concerns the target CCDC6-RET (Homo sapiens (Human), UniProt P07949). Put plainly: HTRF kinase activity assay, CCDC6-RET. The following applies: 1 μM ATP. The data set is classed as biochemical.
In data set [5] the target is KDR (VEGFR2) (Homo sapiens (Human), UniProt P35968). The experiment in a line: HTRF kinase activity assay, KDR. The data set is classed as biochemical. To be noted: 20 μM ATP.
Data set [6] is described as follows: in vitro. To be noted: human, microsomes; for microsomal CLint at 1 µM: CLint (μL/min/mg); for half-life at 1 µM: T1/2 (min).
Data set [7] can be described thus: Metabolic stability in human liver microsomes.
The target in data set [8] is CCDC6-RET (Homo sapiens (Human), UniProt P07949+Q16204). Put plainly: HTRF kinase activity assay, CCDC6-RET. Format: biochemical. The following applies: 1 μM ATP.
The test system of data set [9] is Ba/F3 KIF5B-RET cells. Put plainly: Ba/F3 KIF5B-RET cell inhibition (CellTiter-Glo). The following applies: Mus musculus, BaF3, 72 h. The data set is classed as cell-based. On the procedure:
(§1) Activity Experiment 3: Inhibition of Ba/F3 KIF5B-RET Cells by Prepared Compounds Ba/F3 KIF5B-RET, Ba/F3KIF5B-RET-V804M, Ba/F3 RET-M918T and Ba/F3 KIF5B-RET-G810R cells growing in log phase were harvested and counted using a […]. The cell viability was determined by the trypan blue exclusion method, and the cell viability was kept over 90%. The cell concentration was adjusted, and 90 μL of the cell suspension was added to a 96-well plate. The cells in the 96-well plate were incubated overnight at 37° C. with 5% CO2 and 95% humidity. Corresponding gradient concentrations of drug solutions (the maximum concentration was 1000 nM) were added to the 96-well plate inoculated with cells at 10 μL/well. Triplicate wells were set per drug concentration, and the final concentration of DMSO was 0.1%. The drug-treated cells in the 96-well plate were incubated for another 72 h at 37° C. with 5% CO2 and 95% humidity. After the drug treatment was completed, 100 μL of CellTiter-Glo reagent was added to each well. The cell plate was shaken on an orbital shaker for 5 min to lyse the cells and then let stand at room temperature for 20 min to stabilize the luminescence signals, and then the luminescence values were read. The data were analyzed using the GraphPad Prism 5.0 software. Dose-response curves were fit to the data using nonlinear S-curve regression, and IC50 was calculated from the curves.
In general terms: Cellular ATP, detected with luciferase, serves as a proxy for viable cell number.

The subject of data set [10] is Ba/F3 KIF5B-RET-V804M cells. Put plainly: Ba/F3 KIF5B-RET-V804M cell inhibition (CellTiter-Glo). Format: cell-based. The following applies: Mus musculus, BaF3, 72 h. How it is done:
as §1

Data set [11] concerns Ba/F3 RET-M918T cells. Put plainly: Ba/F3 RET-M918T cell inhibition (CellTiter-Glo). The data set is classed as cell-based. To be noted: Mus musculus, BaF3, 72 h. On the procedure: as §1
The target in data set [12] is T1, hERG potassium channel (Homo sapiens (Human), UniProt Q12809).
The subject of data set [13] is Ba/F3 KIF5B-RET-G810R cells. The experiment in a line: Ba/F3 KIF5B-RET-G810R cell inhibition (CellTiter-Glo). The data set is classed as cell-based. To be noted: Mus musculus, BaF3, 72 h, maximum concentration 1000 nM. How it is done:
as §1

For data set [14], the target named is T1, hERG potassium channel. Put plainly: Inhibition of hERG potassium channel, whole-cell patch clamp in HEK293 cells.
Where [15] appears, read: T1/2 (min), human liver microsomes, NADPH, Table 3.
The mark [16] stands for this setting: read-out: IC50 for inhibition of hERG potassium channel, HEK293 cells stably expressing hERG, patch clamp.
[17] abbreviates: CLint (μL/min/mg), human liver microsomes, NADPH, Table 3.

Read-outs that look alike come from different tables or passages of the source.

RET (V804M), sequence (P07949 29-1114 V804M): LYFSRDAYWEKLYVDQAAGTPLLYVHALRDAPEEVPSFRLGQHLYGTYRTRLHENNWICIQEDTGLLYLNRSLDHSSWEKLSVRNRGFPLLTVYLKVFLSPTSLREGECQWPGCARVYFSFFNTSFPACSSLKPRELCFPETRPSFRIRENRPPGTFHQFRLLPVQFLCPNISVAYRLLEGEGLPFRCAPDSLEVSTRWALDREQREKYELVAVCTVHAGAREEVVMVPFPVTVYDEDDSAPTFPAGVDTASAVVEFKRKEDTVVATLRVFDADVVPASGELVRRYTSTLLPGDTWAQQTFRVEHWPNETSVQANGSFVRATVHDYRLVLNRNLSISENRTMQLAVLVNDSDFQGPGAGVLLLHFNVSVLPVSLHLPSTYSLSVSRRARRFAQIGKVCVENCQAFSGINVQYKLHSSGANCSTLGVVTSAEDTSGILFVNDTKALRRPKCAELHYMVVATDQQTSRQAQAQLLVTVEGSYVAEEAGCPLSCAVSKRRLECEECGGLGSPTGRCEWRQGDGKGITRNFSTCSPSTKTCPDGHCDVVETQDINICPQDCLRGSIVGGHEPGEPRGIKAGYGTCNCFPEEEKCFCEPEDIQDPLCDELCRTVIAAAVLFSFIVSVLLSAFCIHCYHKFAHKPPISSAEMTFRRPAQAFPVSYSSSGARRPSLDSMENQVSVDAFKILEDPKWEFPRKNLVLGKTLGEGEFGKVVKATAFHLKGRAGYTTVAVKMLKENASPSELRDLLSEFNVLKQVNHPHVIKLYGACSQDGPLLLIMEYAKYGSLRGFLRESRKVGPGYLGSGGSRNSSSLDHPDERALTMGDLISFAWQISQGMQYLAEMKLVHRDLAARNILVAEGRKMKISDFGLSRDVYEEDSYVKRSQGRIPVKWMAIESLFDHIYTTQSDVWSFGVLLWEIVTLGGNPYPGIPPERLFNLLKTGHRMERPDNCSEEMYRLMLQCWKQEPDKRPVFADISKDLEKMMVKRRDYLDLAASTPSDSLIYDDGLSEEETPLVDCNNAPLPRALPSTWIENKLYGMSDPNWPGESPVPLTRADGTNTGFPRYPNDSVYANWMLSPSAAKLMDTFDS
KDR (VEGFR2), sequence (P35968 20-1356): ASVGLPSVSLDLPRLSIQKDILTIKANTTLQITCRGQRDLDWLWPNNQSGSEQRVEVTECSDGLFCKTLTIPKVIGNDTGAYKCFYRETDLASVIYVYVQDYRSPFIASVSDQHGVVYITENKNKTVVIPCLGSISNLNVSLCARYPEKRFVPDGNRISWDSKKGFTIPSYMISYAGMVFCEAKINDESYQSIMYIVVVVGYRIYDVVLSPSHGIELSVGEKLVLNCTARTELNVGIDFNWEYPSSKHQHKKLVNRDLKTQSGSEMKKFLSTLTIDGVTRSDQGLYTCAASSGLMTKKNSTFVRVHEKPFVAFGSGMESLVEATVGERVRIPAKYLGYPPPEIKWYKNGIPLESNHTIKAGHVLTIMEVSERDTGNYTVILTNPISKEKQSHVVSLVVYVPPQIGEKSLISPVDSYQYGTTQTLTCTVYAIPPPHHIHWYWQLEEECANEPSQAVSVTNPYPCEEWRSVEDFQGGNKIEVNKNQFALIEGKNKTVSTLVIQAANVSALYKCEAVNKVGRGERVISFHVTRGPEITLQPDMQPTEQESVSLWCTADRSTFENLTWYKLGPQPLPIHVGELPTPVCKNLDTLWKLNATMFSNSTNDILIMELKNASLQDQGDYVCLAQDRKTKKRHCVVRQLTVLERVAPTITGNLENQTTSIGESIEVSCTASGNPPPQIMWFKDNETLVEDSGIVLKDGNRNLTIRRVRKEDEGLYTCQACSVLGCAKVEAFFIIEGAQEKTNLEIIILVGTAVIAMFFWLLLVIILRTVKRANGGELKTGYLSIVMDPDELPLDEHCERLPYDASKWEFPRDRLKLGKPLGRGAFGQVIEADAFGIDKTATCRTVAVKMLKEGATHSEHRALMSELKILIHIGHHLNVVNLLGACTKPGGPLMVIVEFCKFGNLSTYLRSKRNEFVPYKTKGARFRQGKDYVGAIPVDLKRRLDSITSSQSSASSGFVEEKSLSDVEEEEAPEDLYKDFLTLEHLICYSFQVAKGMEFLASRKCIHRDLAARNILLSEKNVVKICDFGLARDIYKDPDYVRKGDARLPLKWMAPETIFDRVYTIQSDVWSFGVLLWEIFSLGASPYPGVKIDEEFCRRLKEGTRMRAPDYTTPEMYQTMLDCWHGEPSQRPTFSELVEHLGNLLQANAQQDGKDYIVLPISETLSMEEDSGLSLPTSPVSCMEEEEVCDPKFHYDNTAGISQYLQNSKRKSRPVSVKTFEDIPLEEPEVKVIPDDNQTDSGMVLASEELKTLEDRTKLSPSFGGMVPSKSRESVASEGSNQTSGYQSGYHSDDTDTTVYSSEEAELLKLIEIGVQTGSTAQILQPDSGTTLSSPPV
T1 sequence (Q12809 whole entry): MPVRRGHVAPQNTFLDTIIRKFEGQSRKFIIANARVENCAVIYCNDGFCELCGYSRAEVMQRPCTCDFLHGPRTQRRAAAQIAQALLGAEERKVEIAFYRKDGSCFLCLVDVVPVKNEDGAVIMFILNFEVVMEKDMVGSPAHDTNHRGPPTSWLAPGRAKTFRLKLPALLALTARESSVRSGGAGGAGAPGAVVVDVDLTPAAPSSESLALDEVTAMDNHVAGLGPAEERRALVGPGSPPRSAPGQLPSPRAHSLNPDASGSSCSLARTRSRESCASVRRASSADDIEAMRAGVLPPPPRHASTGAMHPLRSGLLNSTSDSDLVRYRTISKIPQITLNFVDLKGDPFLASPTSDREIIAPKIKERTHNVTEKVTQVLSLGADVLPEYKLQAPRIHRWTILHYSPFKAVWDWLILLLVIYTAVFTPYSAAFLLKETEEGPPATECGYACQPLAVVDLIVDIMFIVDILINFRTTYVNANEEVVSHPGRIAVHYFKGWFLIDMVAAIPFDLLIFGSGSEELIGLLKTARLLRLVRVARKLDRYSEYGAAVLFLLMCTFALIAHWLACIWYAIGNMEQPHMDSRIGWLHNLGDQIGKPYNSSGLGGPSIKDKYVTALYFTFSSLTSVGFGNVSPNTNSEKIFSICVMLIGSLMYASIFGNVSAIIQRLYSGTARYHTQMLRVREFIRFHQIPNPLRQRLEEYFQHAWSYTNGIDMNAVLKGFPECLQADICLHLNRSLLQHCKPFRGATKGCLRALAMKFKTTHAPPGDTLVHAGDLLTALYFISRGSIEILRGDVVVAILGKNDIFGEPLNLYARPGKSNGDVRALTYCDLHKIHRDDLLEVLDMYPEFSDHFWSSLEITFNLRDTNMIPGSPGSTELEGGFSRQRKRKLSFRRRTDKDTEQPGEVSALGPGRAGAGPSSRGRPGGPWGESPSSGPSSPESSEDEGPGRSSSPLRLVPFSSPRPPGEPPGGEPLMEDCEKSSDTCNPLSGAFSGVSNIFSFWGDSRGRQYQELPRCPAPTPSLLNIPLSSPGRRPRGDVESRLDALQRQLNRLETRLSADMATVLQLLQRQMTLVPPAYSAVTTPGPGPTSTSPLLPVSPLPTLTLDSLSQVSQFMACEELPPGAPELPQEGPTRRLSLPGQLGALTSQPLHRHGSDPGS
RET (M918T), sequence (P07949 29-1114 M918T): as the sequence (P07949 29-1114 V804M) above, with M776V, M890T counted along it
CCDC6-RET (Homo sapiens (Human), UniProt P07949), sequence (P07949 other isoform, or with tags, fused parts or gaps): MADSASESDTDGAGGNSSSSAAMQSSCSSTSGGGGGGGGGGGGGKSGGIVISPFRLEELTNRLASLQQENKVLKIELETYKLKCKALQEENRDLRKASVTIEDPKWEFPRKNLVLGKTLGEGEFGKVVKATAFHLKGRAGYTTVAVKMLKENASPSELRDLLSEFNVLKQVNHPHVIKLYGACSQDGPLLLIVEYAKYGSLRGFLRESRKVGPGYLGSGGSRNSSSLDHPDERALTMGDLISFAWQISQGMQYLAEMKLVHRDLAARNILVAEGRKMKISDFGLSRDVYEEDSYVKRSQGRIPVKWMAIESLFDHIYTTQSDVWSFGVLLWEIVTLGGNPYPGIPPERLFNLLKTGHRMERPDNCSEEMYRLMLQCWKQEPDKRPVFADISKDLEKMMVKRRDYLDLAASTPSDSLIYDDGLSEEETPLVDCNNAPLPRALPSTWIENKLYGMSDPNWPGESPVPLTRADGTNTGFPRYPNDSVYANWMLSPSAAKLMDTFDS
CCDC6-RET (Homo sapiens (Human), UniProt P07949+Q16204), sequence (P07949 other isoform, or with tags, fused parts or gaps): as above
RET wild type (RET WT), sequence (P07949 29-1114): as the sequence (P07949 29-1114 V804M) above, with M776V counted along it

Consider `COc1ccc(CN2C3CC2CN(c2ccc(-c4cc(N5CCOCC5=O)cn5ncc(C#N)c45)cn2)C3)cn1` [Compound 69], for which the IC50 in data set [1] was determined as 18.6 nM; in data set [2], 38.5 nM; in data set [3], 22.3 nM; in [4] it was 12 nM; in data set [5], 755 nM.
The molecule `COc1ccc(CN2C3CC2CN(c2ccc(-c4cc(-c5cc6n(n5)CCC6)cn5ncc(C#N)c45)cn2)C3)cn1` [Compound 57] had an intrinsic metabolic clearance (microsomal CLint) at 1 µM in data set [6] of 69.8 µL/min/mg. In data set [7] (setting [15]), this molecule registered a half-life at 1 µM of 19.9 min.
Regarding `COc1ccc(CN2CCC(Nc3ccc(-c4cc(-c5cnn(C)c5)cn5ncc(C#N)c45)cn3)CC2)cn1` [Compound 21], the IC50 worked out at 45 nM in [1]; 188 nM in data set [2]; 80 nM in data set [3]; 60.5 nM in data set [8]; 109 nM in data set [5].
Consider `COc1ccc(CN2C3CC2CN(c2ccc(-c4cc(N5CCNCC5)cn5ncc(C#N)c45)cn2)C3)cn1` [Compound 96], for which the half-inhibitory concentration (IC50) in [9] came out at 41.8 nM; in data set [10], 196 nM; in [11], 45.1 nM.
For the molecule `COc1ccc(CN2C3CC2CN(c2ccc(-c4cc(NCC(C)(C)O)cn5ncc(C#N)c45)cn2)C3)cn1` [Compound 78], 13.6 nM corresponded to half-maximal inhibition in data set [9] (IC50).
For `COc1ccc(CN2C3CC2CN(c2ccc(-c4cc(N5CC6CC(C5)N6C)cn5ncc(C#N)c45)cn2)C3)cn1` [Compound 17], in [12], 1310 nM corresponded to half-maximal inhibition (IC50). In [6], this molecule came in with a microsomal CLint at 1 µM of 36.4 µL/min/mg and a half-life at 1 µM of 38.1 min.
Regarding `COc1ccc(CN2C3CC2CN(c2ccc(-c4cc(N5CCN(C)C(=O)C5)cn5ncc(C#N)c45)cn2)C3)cn1` [Compound 89], the IC50 was 24 nM in data set [9]; 95.3 nM in [10]; 11.6 nM in [11]; 959 nM in data set [13]; 7170 nM in data set [14] (setting [16]).
As for `COc1ccc(CN2CCN(c3ccc(-c4cc(-c5cc6n(n5)CCC6)cn5ncc(C#N)c45)cn3)CC2)cn1` [Compound 58], the IC50 was 4.98 nM in [1], 19.3 nM in [2], 9.52 nM in [3] and 134 nM in data set [5].
Molecule `COc1ccc(CN2C3CC2CN(c2ccc(-c4cc(N5CCCC(O)C5)cn5ncc(C#N)c45)cn2)C3)cn1` (stereo not shown) [Compound 82] yielded an IC50 in data set [9] of 17.1 nM.
With `COc1ccc(CN2C3CC2CN(c2ccc(-c4cc(-c5cnn6c5CCC6)cn5ncc(C#N)c45)cn2)C3)cn1` [Compound 51], the IC50 is 4.61 nM in [1]; 7.16 nM in data set [2]; 3.9 nM in [3]; 2.15 nM in data set [8]; 52 nM in data set [5].
The like results for `COc1ccc(CN2CCCN(c3ccc(-c4cc(-c5cnn(C)c5)cn5ncc(C#N)c45)cn3)CC2)cn1` [Compound 32] were, in that order, 2.11 nM, 4.8 nM, 1.73 nM, 3.13 nM and 39.1 nM.
`COc1ccc(CN2C3CC2CN(c2ccc(-c4cc(N5CCC(C)(O)C5)cn5ncc(C#N)c45)cn2)C3)cn1` (stereo not shown) [Compound 70]: the IC50 stood at 1.17 nM in data set [1]; 1.01 nM in data set [2]; 1.62 nM in [3]; 1.02 nM in data set [4]; 23.9 nM in data set [5]; 0.99 nM in [9]. Further, the IC50 in [10] was 11.9 nM; in data set [11], 1.15 nM; in data set [13], 194 nM; in [14], 4740 nM. The microsomal CLint at 1 µM in [7] (setting [17]) came to 50.6 µL/min/mg. The molecule further showed a half-life at 1 µM in [7] (setting [15]) of 27.4 min.
For the molecule `[2H]C([2H])([2H])[N+]1([O-])CCN(c2cc(-c3ccc(N4CC5CC(C4)N5Cc4ccc(OC)nc4)nc3)c3c(C#N)cnn3c2)CC1` [Compound 101], the IC50 in data set [1] stood at 2.5 nM; in data set [5] it was 215 nM.
In data set [1], `[2H]C([2H])([2H])N1CCN(c2cc(-c3ccc(N4CC5CC(C4)[N+]5([O-])Cc4ccc(OC)nc4)nc3)c3c(C#N)cnn3c2)CC1` (stereo not shown) [Compound 99] registered an IC50 of 56.6 nM.
With `COc1ccc(CN2C3CC2CN(c2ccc(-c4cc(N5CC(C)(O)C5)cn5ncc(C#N)c45)cn2)C3)cn1` [Compound 86], half-maximal inhibition in data set [9] (IC50) required 3.66 nM.
In data set [12], `COc1ccc(CN2C3CC2CN(c2ccc(-c4cc(N5CC6CC(C5)N6)cn5ncc(C#N)c45)cn2)C3)cn1` [Compound 16] yielded an IC50 of 2060 nM. For the same molecule, in data set [6], the microsomal CLint at 1 µM was 8.8 µL/min/mg and the half-life at 1 µM was 158 min.
Consider `COc1ccc(CN2C3CC2CN(c2ccc(-c4cc(N5CCOCC5)cn5ncc(C#N)c45)cn2)C3)cn1` [Compound 65], for which the concentration for half-maximal inhibition (IC50) was found to be 8.06 nM in data set [9], 58.6 nM in [10], 23.9 nM in [11] and 2720 nM in data set [14] (setting [16]). Further, in data set [7] (setting [17]), the microsomal CLint at 1 µM was 44.8 µL/min/mg. For the same molecule, in [7] (setting [15]), the half-life at 1 µM came to 30.9 min.
As for `COc1ccc(CN2C3CC2CN(c2ccc(-c4cc(N5CCC(OC)C5)cn5ncc(C#N)c45)cn2)C3)cn1` (stereo not shown) [Compound 68], the IC50 in [1] stood at 1.3 nM; in data set [2], 5.37 nM; in data set [3], 8.47 nM; in data set [4], 2.54 nM; in data set [5], 16.6 nM; in data set [9] it was 2 nM.
As for `COc1ccc(CN(C)C2CCCCC2N(C)c2ccc(-c3cc(-c4cnn(C)c4)cn4ncc(C#N)c34)cn2)cn1` (stereo not shown) [Compound 34], the IC50 in data set [1] worked out at 35.8 nM; in data set [2] it was 210 nM; in data set [3], 97.8 nM; in data set [8] it was 71.6 nM; in data set [5] it was 311 nM.
On to `COc1ccc(CN2C3CC2CN(c2ccc(-c4cc(C#CC(C)(C)O)cn5ncc(C#N)c45)cn2)C3)cn1` [Compound 66], for which the IC50 in data set [1] was determined as 1.66 nM; in data set [2], 7.69 nM; in data set [3], 2.05 nM; in data set [4], 1.13 nM; in data set [5], 124 nM; in data set [9] it was 9.17 nM.
Consider `COc1ccc(CN2C3CC2CN(c2ccc(-c4cc(N5CCN(C)CC5)cn5ncc(C#N)c45)cn2)C3)cn1` [Compound 87], for which the IC50 came to 11.8 nM in [9]; 116 nM in data set [10]; 13.4 nM in data set [11]; 431 nM in [13]; 2130 nM in [14] (setting [16]). The molecule further returned a microsomal CLint at 1 µM in data set [7] (setting [17]) of 35.8 µL/min/mg. This molecule came in with a half-life at 1 µM in [7] (setting [15]) of 38.7 min.
In data set [7], `COc1ccc(CN2C3CC2CN(c2ccc(-c4cc(N5CCP(C)(=O)CC5)cn5ncc(C#N)c45)cn2)C3)cn1` [Compound 20] came in with a half-life at 1 µM of 231 min and a microsomal CLint at 1 µM of 6 µL/min/mg. Also, the IC50 in data set [14] (setting [16]) amounted to 22200 nM.
For `CO[C@]1(C(=O)N[C@@H](C)c2ccc(-n3cc(F)cn3)nc2)CC[C@H](c2nc(C)cc(Nc3cc(C)[nH]n3)n2)CC1` [BLU-667, reference compound], the IC50 is 11.3 nM in data set [9], 11.1 nM in data set [10], 12.9 nM in data set [11] and 481 nM in data set [13].
As for `COc1ccc(CN2C3CC2CN(c2ccc(-c4cc(N5CCC(O)C5)cn5ncc(C#N)c45)cn2)C3)cn1` (stereo not shown) [Compound 67], the IC50 in data set [1] stood at 0.79 nM; in data set [2] it was 1.09 nM; in data set [3], 0.75 nM; in [5] it was 24.6 nM; in [9], 3.58 nM.

For orientation: IC50 means the midpoint of a concentration-inhibition curve. A word on the microsomal CLint: it is a measure of how fast metabolising enzymes remove a compound, apart from limits set by blood flow. The term half-life denotes how long it takes for the measured level to halve.
